Test results as given in publication PMC11808659 (RSC Advances, 2025).

Experiments:
[1] = test system: K562 human leukemia cell line; test: MTT anti-proliferative activity on K562 cell line; format: cell-based; conditions: structure-activity discussion
[2] = test system: ABL1 tyrosine kinase; test: ABL1 tyrosine kinase inhibition in K562 cells; format: cell-based, human; conditions: at a concentration of 30 μM

Row | SMILES | anti-tumor activity against K562 cell line (in words) [1] | inhibition of ABL1 production [2]
1 | COc1ccc(-c2cc(-c3ccccc3O)nc(N)n2)cc1 [1d, 2-(2-Amino-6-(4-methoxyphenyl)pyrimidin-4-yl)phenol] | completely lost their anti-tumor activity | –
2 | Nc1nc(-c2ccc(Br)cc2)cc(-c2ccccc2O)n1 [1e, 2-(2-Amino-6-(4-bromophenyl)pyrimidin-4-yl)phenol] | – | 80%
3 | Nc1nc(-c2ccc(Cl)cc2)cc(-c2ccccc2O)n1 [1f, 2-(2-Amino-6-(4-chlorophenyl)pyrimidin-4-yl)phenol] | significantly decreased the inhibitory activity | –
4 | COc1ccc(-c2cc(-c3cccc(OC)c3)nc(N)n2)cc1 [1i, 4-(4-Methoxy-phenyl)-6-(3-methoxy-phenyl)-pyrimidin-2-ylamine] | completely lost their anti-tumor activity | –
5 | COc1cccc(-c2cc(-c3ccc(Cl)cc3)nc(N)n2)c1 [1k, 4-(4-Chloro-phenyl)-6-(3-methoxy-phenyl)-pyrimidin-2-ylamine] | significantly decreased the inhibitory activity | –
6 | COc1ccc(-c2cc(-c3ccc(OC)cc3)nc(N)n2)cc1 [1n, 4,6-Bis(4-methoxyphenyl)pyrimidin-2-amine] | completely lost their anti-tumor activity | –
7 | COc1ccc(-c2cc(-c3ccc(Cl)cc3)nc(N)n2)cc1 [1p, 4-(4-Chlorophenyl)-6-(4-methoxyphenyl)pyrimidin-2-amine] | significantly decreased the inhibitory activity | –
